Patent US6967219B2, “Reversing or preventing premature vascular senescence” (Cornell Research Foundation, Inc., priority 2001, dated 2005)

Key:
[1] = system: Human umbilical vein endothelial cells (HUVEC); test: SA β-galactosidase staining of HUVEC plated on glycated collagen (premature senescence); type: cell-based; conditions: for reduction/reversal of premature senescence across dilutions of glycated collagen: HUVEC on glycated collagen at different dilutions/concentrations of glycated matrix
Procedure: Detection of SA-β-galactosidase was carried out utilizing the histochemical staining method of Dimitri et al, Proc. Natl. Acad. Sci. USA 92, 9363-9367 as modified by Van der Loo, B., et al, Exp. Cell Res. 241, 309-315 (1998). SA-β-galactosidase is a known senescence marker. […] This phenomenon occurred in 12 week and 21 week-old diabetic rats, but was undetectable in age-matched Zucker lean rats (0/24 branches examined).
Human umbilical vein endothelial cells (HUVEC) after four passages were plated on glycated collagen with the addition of 0.1 mM hydroxy-L-arginine vis-a-vis the same concentration of L-arginine. Application was made on day 1, 2 hours after plating. The extent of SA β-galactosidase staining was evaluated on days 3 and 5 of culture on a glycated or native matrix. In addition, to study the reversibility process, HUVEC were plated on glycated collagen for three days (time sufficient to induce premature senescence), and hydroxy-L-arginine was added every 12 hours, starting on day 3, and the cells were examined on day 5.

[2] = system: patient with end stage renal disease; test: Example I: patient with end stage renal disease on chronic hemodialysis treated with hydroxy-L-arginine; type: in vivo, human; conditions: 1-20 mg/kg thrice/day, 6 months later
Excerpt: (In some cases, renal biopsy will be performed, which will directly disclose the deposition of AGE in the renal parenchyma and increased proportion of SA-beta-galactosidase-stained endothelial cells). […] In addition, the patient has their arterio-veinous fistula revised 3 times due to clotting and stenosis. The patient is also complaining of a non-healing foot ulcer and intermittent claudication, both signs of peripheral vascular disease.

[3] = system: patient with type I (alternatively type 2) diabetes mellitus; test: Example II: poorly controlled diabetes mellitus patient treated with hydroxy-L-arginine; type: in vivo, human; conditions: 1-20 mg/kg thrice/day, 6 months later
Procedure: A patient with type I (alternatively, a patient with type 2) diabetes mellitus, past medical history of myocardial infarction, peripheral vascular disease, hypertension, proteinuria and non-healing foot ulcer, is receiving insulin, but patient is poorly compliant. Patient's fasting blood glucose level is 200 mg/dl. Additional laboratory findings include elevated Hgb Alc level (8.5%) as well as one of the following levels of AGE: elevated level of pentosidine (2.3 pmol/mg) or elevated level of Amadori serum albumin (41 U/ml). (In some cases, renal biopsy will be performed, which will directly disclose the deposition of AGE in the renal parenchyma and increased proportion of SA-beta-galactosidase-stained endothelial cells).

[4] = system: saphenous vein endothelial cells seeded on artificial vascular graft; test: Example VI: artificial vascular graft seeded with endothelial cells cultured with hydroxy-L-arginine, implanted; type: in vivo, human; conditions: cells cultured with 10-100 μg/ml at 35° C. for 2-3 weeks
Procedure: A person with peripheral vascular disease is undergoing an elective femoral-to-popliteal bypass surgery utilizing an artificial vascular graft. A saphenous vein is obtained to harvest endothelial cells for expansion and seed on the surface of a graft. Expanded endothelial cells are cultured in the medium containing hydroxy-L-arginine, 10-100 μg/ml at 35° C. for 2-3 weeks, and cells are seeded on the graft in the continuous presence of the same concentration of hydroxy-L-arginine. Thus prepared, the vascular graft is implanted.

[5] = system: patient diagnosed with Alzheimer's disease; test: Example III: patient with Alzheimer's disease treated with hydroxy-L-arginine; type: in vivo, human; conditions: 1-20 mg/kg thrice/day alone or with antioxidant agents and vitamins; two years later
Procedure: A person with no known medical conditions has been experiencing a sustained loss of short-term memory for the past three years. Their CBC, electrolytes and other plasma parameters of metabolic profile are within normal range. There is no vitamin deficiency, no abnormalities in liver function tests, and no previous history of cerebro-vascular accidents. […] Based on these findings the patient is diagnosed with Alzheimer's disease. Therapy with hydroxy-L-arginine is initiated at doses 1-20 mg/kg thrice/day alone or in combination with antioxidant agents and vitamins (e.g., ascorbate, alpha-tocopherol, vitamin B6, vitamin B12, folate (folic acid), carotenoids, coenzyme Q10, phytoestrogens (including isoflavonoids), selenium, butylated hydroxytoluene (BHT), butylated hydroxyanisole (BHA) and n-3 polyunsaturated fatty acids (PUFA)).

[6] = system: saphenous vein endothelial cells seeded on artificial valve; test: Example V: artificial heart valve seeded with endothelial cells cultured with hydroxy-L-arginine, implanted; type: in vivo, human; conditions: cells cultured with 10-100 μg/ml at 35° C. for 2-3 weeks
Procedure: A person with a defective heart valve is being prepared for a surgical replacement of the valve with a prosthetic device. A saphenous vein is obtained to harvest endothelial cells for expansion and seeding on the surface of a artificial valve. Expanded endothelial cells are cultured in the medium containing hydroxy-L-arginine, 10-100 μg/ml at 35° C. for 2-3 weeks and cells are seeded on the valve in the continuous presence of the same concentration of hydroxy-L-arginine. Thus prepared, the artificial valve is implanted.

[7] = system: patients of Examples I, II and III; test: Example IV: other hydroxyguanidines substituted for hydroxy-L-arginine in Examples I, II and III; type: in vivo, human; conditions: same dosage as in Examples I

| Structure (SMILES) | reduction/reversal of premature senescence across dilutions of glycated collagen [1] | coronary symptoms [2] | foot ulcer [2] | pentosidine level after treatment ([2]; baseline 2.5 pmol/mg) [pmol/mg] | Amadori serum albumin level after treatment ([2]; baseline 40 U/ml) [U/ml] | blood pressure ([2]; baseline 175/105 mmHg) | blood pressure [3] | coronary angiogram [3] | coronary symptoms [3] | foot ulcer [3] | pentosidine level after treatment ([3]; baseline 2.3 pmol/mg) [pmol/mg] | Amadori serum albumin level after treatment ([3]; baseline 41 U/ml) [U/ml] | thrombotic and atheroembolic complications [4] | symptoms related to the memory loss [5] | development of premature senescence (SA β-galactosidase staining) ([1]; HUVEC grown on glycated collagen, 0.1 mM added to culture medium on day 1, 2 hours after plating, evaluated days 3 and 5) | thrombotic and atheroembolic complications [6] | results when substituted for hydroxy-L-arginine at the same dosage [7] |
| --- | --- | --- | --- | --- | --- | --- | --- | --- | --- | --- | --- | --- | --- | --- | --- | --- | --- |
| N=C(N)NCCC[C@H](N)C(=O)O [L-arginine, reference compound] | failed to reverse premature senescence at higher concentrations of glycated matrix | – | – | – | – | – | – | – | – | – | – | – | – | – | – | – | – |
| N=C(NO)NCCC[C@H](N)C(=O)O [hydroxy-L-arginine, N^ω-hydroxy-L-arginine] | able to reduce premature senescence at all dilutions of glycated collagen | significant subjective improvement | healing of foot ulcer | 1.7 | 30 | normalization of blood pressure | normalization of blood pressure | either no further worsening of stenotic lesions or some degree of improvement | significant subjective improvement | healing of foot ulcer | 1.7 | 30 | less thrombotic and atheroembolic complications | no deterioration and a partial improvement | completely abolished the development of premature senescence | less thrombotic and atheroembolic complications | – |
| N=C(N)NO [hydroxyguanidine, Hydroxyguanidine] | – | – | – | – | – | – | – | – | – | – | – | – | – | – | – | – | Positive results similar to those obtained in Examples I, II and III |
